The values below come from patent US20210309666A1, “SMALL MOLECULE MDM2 PROTEIN DEGRADERS” (THE REGENTS OF THE UNIVERSITY OF MICHIGAN, priority 2018, published 2021).

Data set [1] in a line: Separate PK experiment, plasma concentrations after oral dose. The class given is in vivo. Conditions: mouse, 50 mg/kg, mice. An excerpt:
In a separate PK experiment, the plasma concentrations of Cpd.

Data set [2] in a line: Pharmacokinetics in mice, oral and IV. Conditions: for F: PO 50 mg/kg vs IV 10 mg/kg; for AUC: mouse, in vivo. The class given is in vivo. The protocol: The pharmacokinetics of Cpd. Nos. 4 and 6, and Cpd. D were evaluated in mice.
The subject of data set [3] is p53 protein. The experiment in a line: Western blot analysis in RS4;11 cells, p53. Type of data set: cell-based, human. Conditions: 2 hr treatment. As for the experimental part: (§1) RS4;11 cells were treated with Cpd. No. 4 and Cpd. No. 6 (MDM2 degraders) or with Cpd. B and Cpd. C (MDM2 inhibitors) for 2 hr. MDM2 and p53 proteins were probed using specific antibodies. GAPDH was used as the loading control. […] No. 4 and Cpd. No. 6 reduce MDM2 protein and increase p53 protein level, and that Cpd. B and Cpd. C increase MDM2 and p53 protein levels in RS4;11 cells. The structures of Cpd. B (see Compound Example No. 24 of U.S. Pat. No. 8,629,141) and Cpd.

Data set [4] has as its target T1, MDM2 protein (Homo sapiens, UniProt Q00987). Description: Western blot analysis in RS4;11 cells, MDM2. Type of data set: cell-based. More on the design: No. 4 and Cpd; No. 6 (MDM2 degraders); endogenous in cells; host or cells: RS4;11. Conditions: 2 hr treatment. The protocol: as §1
Another data set has as its system 22RV1 cells. Description: Cell growth inhibition, 4-day proliferation assay (WST-8). The class given is cell-based. The settings on record: Homo sapiens, 96 h; 22RV1, prostate carcinoma, 4 days. As for the experimental part: (§2) The effect of representative Compounds of the Disclosure on cell viability was determined in a 4-day proliferation assay. Cells were maintained in the appropriate culture medium with 10% FBS at 37° C. and an atmosphere of 5% CO2. Also, the effect of a MDM2 inhibitor (Cpd. A; see Compound Example No. 22 of U.S. Pat. No. 8,629,141) and a known MDM2 degrader (Cpd. D, see Cpd. No. 175 of WO 2017/0176957) on cell viability in various cell lines is also included in Table 5. Cpd. […] A and D. The structure of Cpd. A is:
(§3) Cells were seeded in 96-well flat bottom (Corning COSTAR, Corning, N.Y., cat #3595) at a density of 2,000-3,000 cells/well in 100 μL of culture medium. Compounds were serially diluted in the appropriate medium, and 100 μL of the diluted compounds were added to the appropriate wells of the cell plate. After the addition of compounds, the cells were incubated at 37° C. in an atmosphere of 5% CO2 for 4 days. Cell viability was determined using the WST (2-(2-methoxy-4-nitrophenyl)-3-(4-nitrophenyl)-5-(2,4-disulfophenyl)-2H-tetrazolium, monosodium salt) Cell Counting-8 Kit (Dojindo Molecular Technologies, Inc., Rockville, Md.) according to the manufacturers' instructions.
(§4) WST-8 reagent was added to each well at a final concentration of 10% (v/v), and then the plates were incubated at 37° C. for 1-2 hours for color development. The absorbance was measured at 450 nm using a SPECTRAmax PLUS plate reader (Molecular Devices, Sunnyvale, Calif.). The readings were normalized to the DMSO-treated cells and the half maximal inhibitory concentration (IC50) was calculated by nonlinear regression (four parameters sigmoid fitted with variable slope, least squares fit, and no constraint) analysis using the GraphPad Prism 5 software (GraphPad Software, La Jolla, Calif.).

A further data set concerns SIG-M5 cells. The description is as above. Type of data set: cell-based. Conditions: Homo sapiens, 96 h; SIG-M5, acute myeloid leukemia, 4 days. As for the experimental part: as §2, §3, §4
The test system of a further data set is MOLM-13 cells. The data set is described as above. Type of data set: cell-based. The settings on record: Homo sapiens, 96 h; MOLM-13, acute myeloid leukemia, 4 days. As for the experimental part:
as §2, §3, §4

The test system of the next data set is OCI-AML-2 cells. The description is as above. The settings on record: Homo sapiens, OCI-AML2, 96 h; OCI-AML-2, acute myeloid leukemia, 4 days. Type of data set: cell-based. The protocol: as §2, §3, §4
In another data set the test system is MV-4;11 cells. Described as above. The class given is cell-based. Conditions: Homo sapiens, MV4-11, 96 h, 11, acute biphenotypic B myelomonocytic leukemia, 4 days. The protocol: as §2, §3, §4
Another data set has as its system LNCaP cells. The data set is described as above. The class given is cell-based. The settings on record: Homo sapiens, 96 h, prostate carcinoma, 4 days. The protocol:
as §2, §3, §4

The next data set concerns HCT116 cells. Described as above. Type of data set: cell-based. The settings on record: Homo sapiens, HCT-116, 96 h; HCT116, colorectal carcinoma, 4 days. The protocol:
as §2, §3, §4

A further data set deals with OCI-AML-5 cells. The description is as above. Type of data set: cell-based. Conditions: Homo sapiens, 96 h; OCI-AML-5, acute myeloid leukemia, 4 days. The protocol: as §2, §3, §4
For the next data set, the system named is MOLM-14 cells. The data set is described as above. Type of data set: cell-based. The settings on record: Homo sapiens, 96 h; MOLM-14, acute myeloid leukemia, 4 days. As for the experimental part: as §2, §3, §4
For another data set, the system named is RS4;11 cells. The description is as above. The class given is cell-based. Conditions: Homo sapiens, 96 h, 4 days. As for the experimental part:
as §2, §3, §4

The next data set has as its system ML-2 cells. Described as above. Type of data set: cell-based. The settings on record: Homo sapiens, 96 h; ML-2, acute myeloid leukemia, 4 days. The protocol:
as §2, §3, §4

The target in data set [5] is T1, MDM2 protein. The experiment in a line: Western blot analysis in 22RV1 cells, MDM2. The class given is cell-based. More on the design: endogenous in cells. Conditions: 2 hr treatment. As for the experimental part:
(§5) 22RV1 cells were treated with Cpd. No. 4 and Cpd. D (MDM2 degraders) or with Cpd. A (MDM2 inhibitor) for 2 hr. MDM2 and p53 proteins were probed using specific antibodies. GAPDH was used as the loading control. […] No. 4 and Cpd. D reduce MDM2 protein and increase p53 protein level, and that Cpd. A increases MDM2 and p53 protein levels in 22RV1 cells.

Data set [6] concerns p53 protein. Description: Western blot analysis in 22RV1 cells, p53. The class given is cell-based, human. The settings on record: 2 hr treatment. As for the experimental part:
as §5

[7] abbreviates: read-out: Plasma concentration, Average / Mean.
Setting [8] is: read-out: Plasma concentration, Mouse 1.
The mark [9] stands for this setting: read-out: Plasma concentration, Mouse 2.
Where [10] appears, read: RS4, 11, precursor cell lymphoblastic leukemia, read-out: IC50.

Structures are written as SMILES. Like-named read-outs stand apart in the source and are kept apart here.

T1 sequence (Q00987 whole entry): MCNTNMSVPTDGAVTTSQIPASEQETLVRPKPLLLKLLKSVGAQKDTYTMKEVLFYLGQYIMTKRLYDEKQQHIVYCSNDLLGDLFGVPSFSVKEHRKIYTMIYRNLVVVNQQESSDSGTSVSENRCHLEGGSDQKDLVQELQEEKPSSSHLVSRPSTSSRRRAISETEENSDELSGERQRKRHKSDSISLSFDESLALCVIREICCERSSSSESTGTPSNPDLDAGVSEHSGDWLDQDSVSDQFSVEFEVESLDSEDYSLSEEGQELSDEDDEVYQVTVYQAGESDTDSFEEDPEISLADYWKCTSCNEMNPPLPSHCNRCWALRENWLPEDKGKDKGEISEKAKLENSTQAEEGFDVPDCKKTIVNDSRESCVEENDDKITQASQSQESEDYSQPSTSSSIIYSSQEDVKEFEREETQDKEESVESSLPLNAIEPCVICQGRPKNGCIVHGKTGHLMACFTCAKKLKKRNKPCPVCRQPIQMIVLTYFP

In the case of `O=C1CCC(N2Cc3c(C#CC4CCN(C(=O)C56CCC(NC(=O)[C@@H]7NC8(CCCCC8)[C@@]8(C(=O)Nc9cc(Cl)ccc98)[C@H]7c7cccc(Cl)c7F)(CC5)CC6)CC4)cccc3C2=O)C(=O)N1` (stereo partly drawn) [Cpd. No. 6, (3′R,4′S,5′R)-6″-chloro-4′-(3-chloro-2-fluorophenyl)-N-(4-(4-((2-(2,6-dioxopiperidin-3-yl)-1-oxoisoindolin-4-yl)ethynyl)piperidine-1-carbonyl)bicyclo[2.2.2]octan-1-yl)-2″-oxodispiro[cyclohexane-1,2′-pyrrolidine-3′,3″-indoline]-5′-carboxamide], the concentration at 1 h came to 0.42 ng/mL in [1] (setting [7]), 0.576 ng/mL in data set [1] (setting [8]) and 0.257 ng/mL in [1] (setting [9]). In addition, the concentration at 3 h in [1] (setting [7]) was 3220 ng/mL; in data set [1] (setting [8]) it was 3110 ng/mL; in data set [1] (setting [9]) it was 3330 ng/mL. Moreover, the concentration at 6 h came out at 2380 ng/mL in data set [1] (setting [7]), 2320 ng/mL in [1] (setting [8]) and 2430 ng/mL in data set [1] (setting [9]). Further, the F in data set [2] amounted to 5.7%. Further, the AUC was found to be 154000 ng·h/mL in data set [2] (IV, 10 mg/kg) and 43500 ng·h/mL in data set [2] (PO, 50 mg/kg). Moreover, the p53 protein level entry in the data set on p53 protein [3] was “increase”. In addition, the MDM2 protein level result at MDM2 protein [4] is listed as “reduce”. In addition, the IC50 came to 42 nM with 22RV1 cells; 63 nM in the data set on SIG-M5 cells; 18 nM in the data set on MOLM-13 cells; 69 nM with OCI-AML-2 cells; 6.4 nM in the data set on MV-4;11 cells; 13 nM in the data set with LNCaP cells. In addition, the IC50 in the data set on HCT116 cells is 310 nM; in the data set with OCI-AML-5 cells it was 71 nM; in the data set with MOLM-14 cells, 25 nM; with RS4;11 cells (setting [10]) it was 2.4 nM; with ML-2 cells it was 4.9 nM.

For the molecule `O=C(NC12CCC(C(=O)O)(CC1)CC2)[C@@H]1NC2(CCCCC2)[C@@]2(C(=O)Nc3cc(Cl)ccc32)[C@H]1c1cccc(Cl)c1F` [Cpd. C, reference compound], the p53 protein level entry with p53 protein [3] is “increase”. In addition, the MDM2 protein level result at MDM2 protein [4] is “increase”.

For the molecule `O=C(N[C@H]1CC[C@H](C(=O)O)CC1)[C@@H]1NC2(CCCCC2)[C@@]2(C(=O)Nc3cc(Cl)ccc32)[C@H]1c1cccc(Cl)c1F` [Cpd. B, reference compound], the p53 protein level entry in the data set with p53 protein [3] is recorded as “increase”. Besides, the MDM2 protein level result at MDM2 protein [4] is recorded as “increase”.

On to `O=C1CCC(N2Cc3c(C#CC4CCN(C(=O)c5ccc(NC(=O)[C@@H]6NC7(CCCCC7)[C@@]7(C(=O)Nc8cc(Cl)ccc87)[C@H]6c6cccc(Cl)c6F)cc5)CC4)cccc3C2=O)C(=O)N1` (some centres unmarked) [Cpd. D, reference compound], for which the concentration at 1 h in [1] (setting [7]) is 77.9 ng/mL; in data set [1] (setting [8]) it was 78 ng/mL; in [1] (setting [9]) it was 77.8 ng/mL. The concentration at 3 h was 624 ng/mL in [1] (setting [7]), 510 ng/mL in data set [1] (setting [8]) and 738 ng/mL in data set [1] (setting [9]). The concentration at 6 h in data set [1] (setting [7]) turned out to be 414 ng/mL; in data set [1] (setting [8]), 234 ng/mL; in data set [1] (setting [9]) it was 594 ng/mL. Further, the F in data set [2] came out at 1.27%. Further, the AUC in data set [2] (IV, 10 mg/kg) is 193000 ng·h/mL; in data set [2] (PO, 50 mg/kg), 12300 ng·h/mL. Moreover, the MDM2 protein level entry on MDM2 protein [5] is reported as “reduce”. Also, the p53 protein level entry with p53 protein [6] is on record as “increase”. Also, the IC50 in the data set on 22RV1 cells was 45 nM; in the data set on SIG-M5 cells it was 110 nM; in the data set with MOLM-13 cells, 34 nM; in the data set on OCI-AML-2 cells it was 110 nM; in the data set on MV-4;11 cells it was 10 nM; in the data set with LNCaP cells, 33 nM. Further, the IC50 came to 400 nM in the data set with HCT116 cells; 150 nM in the data set with OCI-AML-5 cells; 78 nM in the data set on MOLM-14 cells; 2.9 nM in the data set on RS4;11 cells (setting [10]); 11 nM in the data set on ML-2 cells.

In the case of `O=C1CCC(N2Cc3c(C#CC4CCN(C(=O)C56CCC(NC(=O)[C@@H]7NC8(CCCCC8)[C@@]8(C(=O)Nc9cc(Cl)ccc98)[C@H]7c7cccc(F)c7F)(CC5)CC6)CC4)cccc3C2=O)C(=O)N1` (stereo partly drawn) [Cpd. No. 14, (3′R,4′S,5′R)-6″-chloro-4′-(2,3-difluorophenyl)-N-(4-(4-((2-(2,6-dioxopiperidin-3-yl)-1-oxoisoindolin-4-yl)ethynyl)piperidine-1-carbonyl)bicyclo[2.2.2]octan-1-yl)-2″-oxodispiro[cyclohexane-1,2′-pyrrolidine-3′,3″-indoline]-5′-carboxamide], in [1] (setting [7]), the concentration at 1 h is 3300 ng/mL, the concentration at 3 h turned out to be 7460 ng/mL and the concentration at 6 h was 8240 ng/mL. Moreover, in data set [1] (setting [8]), the concentration at 1 h came out at 4060 ng/mL, the concentration at 3 h worked out at 6880 ng/mL and the concentration at 6 h was determined as 7660 ng/mL. In data set [1] (setting [9]), the concentration at 1 h came to 2550 ng/mL, the concentration at 3 h was 8050 ng/mL and the concentration at 6 h was 8810 ng/mL. For the same molecule, the IC50 in the data set with RS4;11 cells (RS4;11 cells, WST-8, read-out: RS4, 11 Cells IC50) came out at 11 nM.

Take `O=C(O)c1ccc(NC(=O)[C@@H]2NC3(CCCCC3)[C@@]3(C(=O)Nc4cc(Cl)ccc43)[C@H]2c2cccc(Cl)c2F)cc1` [Cpd. A, reference compound]: the MDM2 protein level entry on MDM2 protein [5] is reported as “increases”. For the same molecule, the p53 protein level result with p53 protein [6] is given as “increases”. Besides, the IC50 in the data set with 22RV1 cells was determined as 1330 nM; in the data set with RS4;11 cells (setting [10]), 138 nM.
